Tests used:
[1] = target: T1, Deoxyhypusine synthase (BmDHS) (Brugia malayi, UniProt A0A0J9XTC4); assay: NADH fluorescence assay of DHS partial reaction with purified recombinant enzyme; type: biochemical
T1 construct: gene bma-dhps-1; full-length, recombinant BmDHS (residues 1–366)
T1 sequence (A0A0J9XTC4 1-366): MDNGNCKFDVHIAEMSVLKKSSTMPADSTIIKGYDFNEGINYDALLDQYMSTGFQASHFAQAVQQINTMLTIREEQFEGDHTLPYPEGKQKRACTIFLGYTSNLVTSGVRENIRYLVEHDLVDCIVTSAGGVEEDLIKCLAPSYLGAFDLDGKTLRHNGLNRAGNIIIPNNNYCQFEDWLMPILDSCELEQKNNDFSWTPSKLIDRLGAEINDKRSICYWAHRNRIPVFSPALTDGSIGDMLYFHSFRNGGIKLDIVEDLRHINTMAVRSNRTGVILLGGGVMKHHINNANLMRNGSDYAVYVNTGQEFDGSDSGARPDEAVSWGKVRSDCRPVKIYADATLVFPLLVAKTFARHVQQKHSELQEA

[2] = target: the molecule itself; assay: SEC; analytical gel filtration, Superdex 200 Increase 10/300, 900 ug purified BmDHS; 20 mM HEPES pH 7.5, 300 mM NaCl, 5% glycerol, 0.5 mM TCEP; calibrated with protein standards (Kav against log mass)

N=C(N)NCCCCCCCN [GC7]
IC50 [1]: 28 nM

B1: Brugia malayi deoxyhypusine synthase (BmDHS), full-length recombinant protein (enzyme)
chain: SMDNGNCKFDVHIAEMSVLKKSSTMPADSTIIKGYDFNEGINYDALLDQYMSTGFQASHFAQAVQQINTMLTIREEQFEGDHTLPYPEGKQKRACTIFLGYTSNLVTSGVRENIRYLVEHDLVDCIVTSAGGVEEDLIKCLAPSYLGAFDLDGKTLRHNGLNRAGNIIIPNNNYCQFEDWLMPILDSCELEQKNNDFSWTPSKLIDRLGAEINDKRSICYWAHRNRIPVFSPALTDGSIGDMLYFHSFRNGGIKLDIVEDLRHINTMAVRSNRTGVILLGGGVMKHHINNANLMRNGSDYAVYVNTGQEFDGSDSGARPDEAVSWGKVRSDCRPVKIYADATLVFPLLVAKTFARHVQQKHSELQEA
notes: additional N-terminal serine residue introduced by the cloning strategy and left over after TEV cleavage of the poly-His tag; Deoxyhypusine synthase of Brugia malayi, encoded by bma-DHPS-1, full-length enzyme, residues 1-366; Expressed from pNIC28-Bsa4; Molecular weight by LC-MS 41,083.5 Da; also called B. malayi (Bm)DHS; filarial worm DHS; source: E. coli BL21(DE3)-R3-pRARE2, purified (HisTrap …)
stoichiometry N [2]: 4

Source: PMC7581365, “Structural features and development of an assay platform of the parasite target deoxyhypusine synthase of Brugia malayi and Leishmania major” (PLoS Neglected Tropical Diseases, 2020)
